Tests used:
Type in all cases: cell-based, human
Snos2 osteosarcoma cells = test: Drug cytotoxicity (adriamycin, TNF) in Snos2 osteosarcoma cells; details: Snos2 cells with control vector, doses tested
Procedure: (§1) A control vector, E1A or the E1A mutants (ΔN or ΔCR2) were introduced into tumor cells via retroviral mediated gene transfer and analyzed for drug cytoxicity within a few days of gene transfer. Cell populations were treated with adriamycin or tumor necrosis factor a (or both).

U2OS osteosarcoma cells = test: Drug cytotoxicity (adriamycin, TNF) in U2OS osteosarcoma cells; details: U2OS cells with control vector, doses tested
Procedure: as §1

[1] = system: BT-549 breast carcinoma cells; test: Drug cytotoxicity (adriamycin) in BT-549 breast carcinoma cells; details: BT549 cells containing a control vector
Procedure: as §1

COc1cccc2c1C(=O)c1c(O)c3c(c(O)c1C2=O)C[C@@](O)(C(=O)CO)C[C@@H]3O[C@H]1C[C@H](N)[C@H](O)[C@H](C)O1 [adriamycin]
apoptosis following drug treatment (Snos2 osteosarcoma cells): do not undergo apoptosis | apoptosis / cell death following drug treatment (U2OS osteosarcoma cells): do not undergo apoptosis | apoptosis following drug treatment [1]: unable to induce apoptosis
